The record followed here is patent US20230024192A1, “Citrate-Functionalized Polymeric Surfactants Based Upon Alkyl Polyglucosides” (Colonial Chemical, Inc., priority 2019, published 2023).

Data set [1] is described as follows: Salt curves, viscosity build in cleansing formulations (SLS- or AOS-based blends). It is filed as physicochemical. Conditions: incorporated into typical cleansing formulations with SLS or AOS, cocamidopropyl betaine, cocamide MEA; salt curves FIGS. 1 and 2. The protocol:
The generalized cleansing formulations are shown in Table 1, where various anionic surfactants, or blends of anionic surfactants, were added to a betaine and an alkanolamide surfactant and water. The balance of the weight in these formulas is water. […] Salts curves were generated for both sulfate-free blends based on AOS, Sodium C14-16 Olefin Sulfonate (FIG. 2), as well as sodium lauryl sulfate-based blends (FIG. 1). The salt curves in FIG. 1 are for the following: 1) Sodium Lauryl Sulfate (SLS) alone: 2) Sodium Lauryl Sulfate:Water, 2:1; 3) Sodium Lauryl Sulfate:Disodium Laurylglucosides Hydroxypropyl Citrate 2:1; and 4) Sodium Lauryl Sulfate:Disodium Laurylglucosides Hydroxypropyl Citrate, 1:1. The salt curves in FIG. 2 are for the following: 1) Sodium C14-16 Olefin Sulfonate (AOS) alone: 2) Sodium C14-16 Olefin Sulfonate:Water, 2:1; 3) Sodium C14-16 Olefin Sulfonate:Disodium Laurylglucosides Hydroxypropyl Citrate, 2:1; and 4) Sodium C14-16 Olefin Sulfonate:Disodium Laurylglucosides Hydroxypropyl Citrate, 1:1. [table] […] Some formulations can achieve desired viscosity levels without any added salt, meeting the demand for that type of claim by some shampoo manufacturers.

Data set [2] relates to Zein. The experiment in a line: Zein Test, irritation potential of surfactants / cleansing formulations by amount of zein solubilized. Also on record: species or system corn. To be noted: anionic cleanser, FIG. 3. The protocol:
Surfactants of the current invention were tested for their ability to reduce the irritation potential of cleansing formulations. We used the Zein Test [referenced in J. Surfact.
The Zein test is intended for determining the irritation potential of a surfactant or surfactant-based product. Zein, a corn protein similar to keratin present in the skin and hair, is insoluble in water unless it is denatured by an irritant. In this test, the irritant is a surfactant or surfactant-based product, and irritation potential is predicted by the amount of zein solubilized.

On to “Disodium Laurylglucosides Hydroxypropyl Citrate”, for which, in data set [1], the viscosity build entry was “fast and high viscosity build”. Also, the “irritation potential in cleansing formulations (Zein Test)” value in data set [2] is recorded as “effective at reducing irritation potential”.
